Reference: patent publication US20230255935A1, “ANTI-VIRAL COMPOUNDS AND METHODS FOR SCREENING SAME AND TREATING VIRAL INFECTIONS” (priority 2020, published 2023)
Like-named read-outs stand apart in the source and are kept apart here.

Key:
in vitro = details: African green monkey
MERS-CoV [1] = assay: microbe, parasite or virus in culture; details: Middle East respiratory syndrome-related coronavirus, Vero C1008, 48 h
MHV [2] = assay type: cell-based, mouse hepatitis virus (MHV)
PEDV = assay type: cell-based, porcine epidemic diarrhea virus (PEDV)
MERS-CoV [3] = assay type: cell-based
[4] = target: T1, full-length MERS-CoV N protein (Middle East respiratory syndrome-related coronavirus, UniProt K9N4V7)
SARS-CoV2 [5] = assay type: cell-based
MERS-CoV N protein = assay type: cell-based
MERS-CoV N-NTD [6] = target: T2, MERS-CoV N-NTD (Middle East respiratory syndrome-related coronavirus, UniProt K9N4V7)
MHV [7] = assay: MHV-infected mice treated with PSX-01 (clinical score, body weight, liver histology); details: PSX-01 10 mM intraperitoneal
MERS-CoV [8] = assay type: cell-based; remark: listed apart in the source
[9] = target: T1, full-length MERS-CoV N protein; remark: listed apart in the source
MERS-CoV [10] = system: MERS-CoV
[11] = target: T1, full-length MERS-CoV N protein; remark: listed apart in the source
SARS-CoV2 [12] = system: SARS-CoV2
MERS-CoV [13] = assay type: cell-based; remark: listed apart in the source
MERS-CoV N-NTD [14] = target: T2, MERS-CoV N-NTD; remark: listed apart in the source

**Q.** Which CC50 (in vitro) does the source give for `O=C(OCc1ccccc1)N1c2ccccc2CC1CO` (centres unmarked) [Compound P1, benzyl 2-(hydroxymethyl)-1-indolinecarboxylate] here?
**A.** 460 µM

**Q.** What about the EC50 (MERS-CoV [1]) of the same molecule?
**A.** > 100 µM

**Q.** With `CCc1cccc2c3c([nH]c12)C(CC)(CC(=O)O)OCC3` (centres unmarked) [Compound P2, etodolac] as the molecule, how does the CC50 (in vitro) read?
**A.** 570 µM

**Q.** What about the EC50 (MERS-CoV [1]) of the same molecule?
**A.** > 100 µM

**Q.** For `CN(C)Cc1c[nH]c2ccc(OCc3ccccc3)cc12` [PSX-01, 5-benzyloxygramine], which cytopathic effect (MHV [2]) is on record?
**A.** significantly reduce the cytopathic effect

**Q.** What about the cytopathic effect (PEDV) of the same molecule?
**A.** significantly reduce the cytopathic effect

**Q.** And the “suppression of viral RNA replication” value (MERS-CoV [3])?
**A.** 40%

**Q.** What about the “viral RNA replication” value (MERS-CoV [3]) of the same molecule?
**A.** halted

**Q.** What about the “maximum dimension (Dmax) of N protein” value [4] of the same molecule?
**A.** 230

**Q.** And the “viral titer (plaque assay)” value (SARS-CoV2 [5])?
**A.** affected the viral titer

**Q.** And the N protein expression (MERS-CoV N protein)?
**A.** suppressed N protein expression in most cells

**Q.** And the “intracellular N protein distribution” value (MERS-CoV N protein)?
**A.** condensation of the intracellular N protein fluorescence signal

**Q.** And the “binding to the N protein relative to the other leads” value (MERS-CoV N-NTD [6])?
**A.** bound more tightly to the N protein than P1 or P2

**Q.** What about the “shift in the intrinsic N-NTD fluorescence spectrum” value (MERS-CoV N-NTD [6]) of the same molecule?
**A.** comparatively larger blue shift

**Q.** And the “appearance (clinical score)” value (MHV [7]; 4 h before MHV 10^4 pfu, mice)?
**A.** prevent the appearance change caused by MHV

**Q.** And the “liver histology (H&E stain)” value (MHV [7]; MHV infection, day 7)?
**A.** rescue the increases of adipocytes and inflammation

**Q.** What about the “extracellular viral titer (plaque assay)” value (MERS-CoV [8]) of the same molecule?
**A.** affected the viral titer

**Q.** And the “viral production (plaque assay)” value (MERS-CoV [8])?
**A.** halted

**Q.** And the “N protein thermal denaturation” value [9]?
**A.** delayed N protein thermal denaturation

**Q.** And the EC50 (MERS-CoV [10])?
**A.** 32.1 µM

**Q.** What about the “TI (CC50/EC50)” value (MERS-CoV [10]) of the same molecule?
**A.** 25.1

**Q.** What about the “shift in the fluorescence spectrum of full-length N protein” value [11] of the same molecule?
**A.** “blue shift” was observed

**Q.** And the EC50 (SARS-CoV2 [12])?
**A.** 35 µM

**Q.** And the “TI (CC50/EC50)” value (SARS-CoV2 [12])?
**A.** 23

**Q.** What about the cytopathic effect (MERS-CoV [13]) of the same molecule?
**A.** significantly reduce the cytopathic effect

**Q.** What about the “N-NTD denaturation melting temperature” value (MERS-CoV N-NTD [14]) of the same molecule?
**A.** 45 °C
